Each structure is given as a SMILES string.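 Protocol summary: plate cells (96-well), add compound at 5 concentrations, incubate 48 h, interpolate endpoints linearly. TGI is the concentration that stops growth completely.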

Holding throughout (experiment): DTP human tumour cell line panel, 48 h
Experiment [1] deals with HOP-62 NSCLC.
Experiment [2] has as its system OVCAR-8 ovarian.
Experiment [3] concerns EKVX NSCLC.
Experiment [4] has as its system HT29 colon.
For experiment [5], the system named is MOLT-4 leukemia.
The test system of experiment [6] is ACHN renal.
Experiment [7] relates to SK-MEL-2 melanoma.
Experiment [8] relates to NCI-H23 lung.
For experiment [9], the system named is LXFL 529 NSCLC.
The test system of experiment [10] is NCI-H460 lung.

As for `CC(=O)NNc1nc(C)c(C(=O)NNC(=O)C(=O)Nc2c(Cl)cc([N+](=O)[O-])cc2Cl)s1`, the TGI in [1] is more than 100 µM; in experiment [2], more than 100 µM; in experiment [3], more than 100 µM; in experiment [4], more than 100 µM; in experiment [5], 97.6 µM; in [6], more than 100 µM. In addition, the TGI in experiment [7] is more than 100 µM; in experiment [8] it was 36.7 µM; in experiment [9] it was more than 100 µM; in experiment [10], more than 100 µM.

On to `COC(CN1C(=O)c2cccc3cccc(c23)C1=O)OC`, for which the TGI in experiment [1], in experiment [2], in experiment [3], in [4], in experiment [5] and in experiment [6] was more than 100 µM in each case. Also, the TGI in [7] was 86.3 µM; in experiment [8], more than 100 µM; in [9], more than 100 µM; in experiment [10], more than 100 µM.

Take `Cc1nc2ccccc2c(=O)n1-c1ccccc1I`: the TGI in experiment [1], in [2], in experiment [3], in [4], in [5] and in experiment [6] was more than 100 µM throughout. Moreover, the TGI in [7], in experiment [8], in experiment [9] and in [10] was more than 100 µM throughout.

With `CN/N=C(/Cc1occc(=O)c1O)C(=O)Nc1ccccc1C`, the TGI in [1], in [2], in experiment [3], in experiment [4], in [5] and in [6] was more than 100 µM in each case. Further, the TGI in experiment [7], in [8], in experiment [9] and in experiment [10] was more than 100 µM each time.

Take `O=CC[C@H]1C(=O)C[C@@H]2CCC[C@@H]21`: the TGI in experiment [1], in [2], in experiment [3], in experiment [4], in experiment [5] and in [6] was more than 100 µM throughout. The TGI in experiment [7], in experiment [8], in [9] and in experiment [10] was more than 100 µM in each case.

`O=C(/C=C/c1ccccc1)NC1C=Nc2ccc(Cl)cc2NC1=O` (stereo not given): the TGI in [1] is more than 100 µM; in experiment [2] it was more than 100 µM; in [3] it was more than 100 µM; in [4], more than 100 µM; in [5] it was 27.3 µM; in experiment [6], more than 100 µM. The TGI in experiment [7] was more than 100 µM; in experiment [8], more than 100 µM; in experiment [9] it was more than 100 µM; in [10], 51 µM.

Turning to `CCCCCCCCCCCOc1ccc(C(=O)C(=O)c2ccc(OCCCCCCCCCCC)c(OCCCCCCCCCCC)c2)cc1OCCCCCCCCCCC`, the TGI in experiment [1], in experiment [2], in [3], in experiment [4], in experiment [5] and in [6] was more than 100 µM each time. Moreover, the TGI in [7], in experiment [8], in experiment [9] and in experiment [10] was more than 100 µM in each case.

With `CCOC(=O)CN1C(=O)c2cccc3cc([N+](=O)[O-])cc(c23)C1=O`, the TGI came out at 32.3 µM in [1]; 3.43 µM in experiment [2]; 28.6 µM in experiment [3]; 25.4 µM in experiment [4]; 2.45 µM in experiment [5]; 21.7 µM in experiment [6]. Also, the TGI in [7] amounted to 2.87 µM; in [8], 4.52 µM; in experiment [9], 3.13 µM; in [10], 17.3 µM.

In the case of `O=C(COc1ccc(Br)cc1Br)N1N=C(c2ccc([N+](=O)[O-])o2)CC1(O)c1ccccc1` (stereo not given), the TGI was 27.5 µM in experiment [1]; 36.7 µM in experiment [2]; 9.59 µM in experiment [3]; 48 µM in experiment [4]; 8.98 µM in [5]; more than 100 µM in [6]. The TGI stood at 31.3 µM in [7], 36 µM in experiment [8], 21.6 µM in experiment [9] and 20.4 µM in experiment [10].

Take `CC(C)=CC(=O)C1c2cccc(O)c2C(=O)c2c(O)cc(C)cc21` (stereo not given): the TGI in experiment [1] came to 7.87 µM; in experiment [2], 7.58 µM; in experiment [3], 31.5 µM; in [4], 20.5 µM; in experiment [5] it was 20.7 µM; in experiment [6], 4.77 µM. The TGI in experiment [7] turned out to be 3.6 µM; in experiment [8], 6.55 µM; in experiment [9] it was 4.47 µM; in [10] it was 10.1 µM.

For the compound `CCOc1ccc(NC(=O)C(=O)CC(=O)c2c[n+](=O)c3cc(C)c(C)cc3n2[O-])cc1`, the TGI in experiment [1], in [2], in experiment [3], in [4], in experiment [5] and in [6] was more than 100 µM each time. Moreover, the TGI in experiment [7], in experiment [8], in experiment [9] and in [10] was more than 100 µM in each case.

As for `C=C1C(=O)C23CC1CCC2C12CO[C@@H]4OCC(C)(CC[C@@H]1OC3=O)C42` (stereo not given in full), the TGI in experiment [1] stood at 43.4 µM; in experiment [2] it was 9.78 µM; in experiment [3], 32.1 µM; in experiment [4], 10.3 µM; in experiment [5] it was 9.7 µM; in [6] it was 9.4 µM. Besides, the TGI in [7] came to 16.9 µM; in experiment [8], 16.6 µM; in experiment [9] it was 9.39 µM; in experiment [10] it was 17.5 µM.

On to `O=CN/C=C/c1cc(O)ccc1O`, for which the TGI in experiment [1] was more than 100 µM; in experiment [2], 43 µM; in experiment [3], 35.6 µM; in experiment [4], 56.5 µM; in experiment [5] it was more than 63.4 µM; in experiment [6] it was 28.9 µM. Further, the concentration for total growth inhibition (TGI) is more than 71.9 µM in [7], 43.7 µM in experiment [8], 23.9 µM in [9] and more than 100 µM in experiment [10].

With `Cc1cc(C)nc(NS(=O)(=O)c2ccc(NC(=O)c3ccc(Cl)c4c(Nc5ccc(S(=O)(=O)Nc6nc(C)cc(C)n6)cc5)c5ccccc5nc34)cc2)n1`, the TGI is more than 100 µM in experiment [1]; more than 100 µM in experiment [2]; 88.8 µM in experiment [3]; more than 100 µM in experiment [4]; more than 100 µM in [5]; more than 100 µM in experiment [6]. Further, the TGI was more than 100 µM in [7], 39.7 µM in experiment [8], 61.2 µM in experiment [9] and more than 100 µM in experiment [10].

On to `Cn1cnc([N+](=O)[O-])c1Sc1nnc(-c2cccnc2)n1C`, for which the TGI in experiment [1] is more than 100 µM; in [2] it was 59.7 µM; in experiment [3], 66.4 µM; in [4], 47.9 µM; in experiment [5] it was 52 µM; in [6] it was 36.7 µM. Moreover, the TGI was 46.1 µM in experiment [7], 51.7 µM in [8], 24.4 µM in experiment [9] and more than 100 µM in experiment [10].

Take `CN(C)CC[N+]1=Nc2cccc3cccc(c23)N1`: the TGI in experiment [1] is more than 100 µM; in [2], more than 100 µM; in experiment [3], more than 100 µM; in [4], more than 100 µM; in experiment [5], more than 73.2 µM; in experiment [6] it was more than 100 µM. The TGI in experiment [7] was more than 100 µM; in experiment [8], more than 100 µM; in [9], more than 100 µM; in experiment [10], more than 64.8 µM.

On to `CN1C(=O)C(C)(C)C2(SC(C)(C)C2(C)C)N(C)C1=S` (stereo not given), for which the TGI in experiment [1], in [2], in experiment [3], in [4], in experiment [5] and in experiment [6] was more than 100 µM each time. The TGI in [7], in experiment [8], in experiment [9] and in experiment [10] was more than 100 µM throughout.

As for `CC1=C(C(=O)NCc2ccccc2)C(/C=C/c2ccccc2)C(C(=O)NCc2ccccc2)=C(C)N1`, the TGI in [1], in experiment [2], in experiment [3], in [4], in experiment [5] and in experiment [6] was more than 100 µM each time. For the same compound, the TGI in experiment [7], in experiment [8], in experiment [9] and in experiment [10] was more than 100 µM in each case.

The TGI is the concentration at which net growth stops. Low values mean more potent growth arrest, high ones less potent growth arrest.

For the origin of these results see PubChem BioAssay (NCI).
